Converted amounts (≈) assume the structure as drawn.
How the values were obtained:
[1] = biological target: T1, Vascular endothelial growth factor receptor 2 (Homo sapiens, UniProt P35968); experiment: Inhibition of recombinant human VEGFR-2 using poly (Glu,Tyr) 4:1 as substrate in presence of ATP
[2] = test system: MCF7; experiment: Cytotoxicity against human MCF7 cells incubated for 72 hrs by MTT assay; type: functional, cell-based; details: MCF7, 72 h
[3] = test system: A549; experiment: Cytotoxicity against human A549 cells incubated for 72 hrs by MTT assay; type: functional, cell-based; details: A549, 72 h
[4] = biological target: T1, Vascular endothelial growth factor receptor 2; experiment: Inhibition of recombinant VEGFR2 (unknown origin) using poly (Glu,Tyr) 4:1 as substrate measured after 45 mins in presence of ATP by microplate reader analysis
[5] = Cytotoxicity against human WI-38 cells incubated for 72 hrs by MTT assay; type: toxicity, cell-based
[6] = Selectivity index, ratio of IC50 for human WI-38 cells to IC50 for human MCF7 cells; type: toxicity; details: WI-38 cells versus MCF7 cells, read-out: Ratio IC50
[7] = Selectivity index, ratio of IC50 for human WI-38 cells to IC50 for human A549 cells; type: toxicity; details: WI-38 cells versus A549 cells, read-out: Ratio IC50
[8] = test system: MCF7; experiment: Induction of cell cycle arrest in human MCF7 cells assessed as G1 phase arrest at 5.86 uM incubated for 72 hrs by PI staining based flow cytometry analysis (reference value: 11.07%); type: functional
[9] = test system: MCF7; experiment: Induction of cell cycle arrest in human MCF7 cells assessed as G2/M phase arrest at 5.86 uM incubated for 72 hrs by PI staining based flow cytometry analysis (reference value: 13.52%); type: functional
[10] = test system: MCF7; experiment: Induction of apoptosis in human MCF7 cells assessed as early apoptotic cells at 5.86 uM incubated for 72 hrs by Annexin-V/PI staining based flow cytometry analysis (reference value: 0.06%); type: functional
[11] = test system: MCF7; experiment: Induction of apoptosis in human MCF7 cells assessed as late apoptotic cells at 5.86 uM incubated for 72 hrs by Annexin-V/PI staining based flow cytometry analysis (reference value: 0.68%); type: functional
[12] = test system: MCF7; experiment: Induction of apoptosis in human MCF7 cells assessed as necrotic cells at 5.86 uM incubated for 72 hrs by Annexin-V/PI staining based flow cytometry analysis (reference value: 0.02%); type: functional
[13] = Cytotoxicity against HUVECs incubated for 72 hrs by MTT assay; type: toxicity, cell-based; details: human, HUVEC cells
[14] = test system: HUVEC; experiment: Inhibition of cell migration in human HUVECs assessed as reduction in wound closure percentage (reference value: 97.037%); type: functional; parameters: scale not given: the % may be the effect or the level left
[15] = test system: MCF7; experiment: Cytotoxicity against human MCF-7 cells; type: functional, cell-based
[16] = test system: HepG2; experiment: Cytotoxicity against human HepG2 cells; type: functional, cell-based

T1 sequence (P35968 whole entry): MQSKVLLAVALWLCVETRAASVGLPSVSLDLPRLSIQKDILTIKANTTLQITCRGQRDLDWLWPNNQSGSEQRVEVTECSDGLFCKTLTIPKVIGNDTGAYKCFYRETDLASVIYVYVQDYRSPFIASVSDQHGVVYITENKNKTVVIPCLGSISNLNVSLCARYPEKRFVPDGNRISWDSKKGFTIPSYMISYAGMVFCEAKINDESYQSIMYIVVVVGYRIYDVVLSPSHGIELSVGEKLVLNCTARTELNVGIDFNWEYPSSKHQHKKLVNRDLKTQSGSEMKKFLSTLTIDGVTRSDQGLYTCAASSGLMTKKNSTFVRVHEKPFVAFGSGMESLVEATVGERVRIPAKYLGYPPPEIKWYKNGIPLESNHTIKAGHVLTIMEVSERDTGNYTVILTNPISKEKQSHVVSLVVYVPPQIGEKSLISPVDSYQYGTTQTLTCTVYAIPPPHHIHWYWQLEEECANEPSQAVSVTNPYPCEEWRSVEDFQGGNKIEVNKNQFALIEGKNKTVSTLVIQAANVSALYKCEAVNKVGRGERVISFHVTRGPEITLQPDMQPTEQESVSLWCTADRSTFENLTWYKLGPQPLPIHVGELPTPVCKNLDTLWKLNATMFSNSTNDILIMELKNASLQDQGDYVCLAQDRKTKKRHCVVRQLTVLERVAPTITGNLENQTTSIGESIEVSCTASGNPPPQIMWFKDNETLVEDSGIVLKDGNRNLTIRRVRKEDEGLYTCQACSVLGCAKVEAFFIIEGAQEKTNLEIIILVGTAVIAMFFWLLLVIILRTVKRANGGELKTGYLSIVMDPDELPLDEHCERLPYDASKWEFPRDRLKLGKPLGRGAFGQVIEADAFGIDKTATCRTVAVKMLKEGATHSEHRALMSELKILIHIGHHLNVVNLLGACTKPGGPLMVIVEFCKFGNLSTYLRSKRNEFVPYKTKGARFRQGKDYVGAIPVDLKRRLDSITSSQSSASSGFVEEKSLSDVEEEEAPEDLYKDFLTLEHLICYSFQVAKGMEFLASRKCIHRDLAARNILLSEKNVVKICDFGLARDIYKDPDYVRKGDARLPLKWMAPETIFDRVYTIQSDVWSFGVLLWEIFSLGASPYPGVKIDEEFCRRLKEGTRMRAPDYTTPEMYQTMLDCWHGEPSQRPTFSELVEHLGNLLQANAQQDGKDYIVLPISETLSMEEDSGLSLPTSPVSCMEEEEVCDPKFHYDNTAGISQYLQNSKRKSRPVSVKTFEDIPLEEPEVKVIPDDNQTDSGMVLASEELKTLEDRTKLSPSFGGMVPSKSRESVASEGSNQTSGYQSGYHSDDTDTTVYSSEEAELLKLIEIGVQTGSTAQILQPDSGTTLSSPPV

IC50 [4] | SMILES | IC50 [2] | IC50 [3] | also measured
– | CCOC(=O)/C(C#N)=C(\c1ccc(O)cc1)N1CC(=O)N(/N=C(\C)c2ccc(O)cc2O)C1=S | – | – | IC50 [1]: 0.0198 µM
– | C/C(=N\N1C(=O)CNC1=S)c1ccc(O)cc1O | – | – | IC50 [1]: 0.0251 µM
– | Cc1cc(NS(=O)(=O)c2ccc(NC(=O)COC(=O)c3ccc(N4C(=O)/C(=C/c5ccc(N(C)C)cc5)N=C4c4ccccc4)cc3)cc2)no1 | 26.8 µM | 30.6 µM | –
0.07 µM | CN(C)c1ccc(/C=C2\N=C(c3ccc(Cl)cc3)N(c3ccc(S(=O)(=O)Nc4ncccn4)cc3)C2=O)cc1 | 5.86 µM | 7.66 µM | IC50 at 72 h [5]: 21.6 µM; selectivity ratio [6]: 3.69; selectivity ratio [7]: 2.88; Activity [8]: 22.68%; Activity [9]: 35.17%; Activity [10]: 22.84%; Activity [11]: 42.21%; Activity [12]: 1.64%; IC50 at 72 h [13]: 179 µM; Activity [14]: 65.926%
0.2 µM | CN(C)c1ccc(/C=C2\N=C(c3ccccc3)N(c3ccc(S(N)(=O)=O)cc3)C2=O)cc1 | 19.5 µM | 29 µM | –
– | CN(C)c1ccc(/C=C2\N=C(c3ccccc3)N(c3ccc(S(=O)(=O)Nc4ncccn4)cc3)C2=O)cc1 | 21.1 µM | 29.6 µM | –
– | CN(C)c1ccc(/C=C2\N=C(c3ccccc3)N(c3ccc(S(=O)(=O)Nc4nccs4)cc3)C2=O)cc1 | 39.9 µM | 31.6 µM | –
– | CN(C)c1ccc(/C=C2\N=C(c3ccccc3)N(c3ccc(C(=O)OCC(=O)Nc4ccc(S(=O)(=O)Nc5nccs5)cc4)cc3)C2=O)cc1 | 26.5 µM | 16.6 µM | –
– | CN(C)c1ccc(/C=C2\N=C(c3ccccc3)N(c3ccc(S(=O)(=O)NC(=N)N)cc3)C2=O)cc1 | 37.4 µM | 61.2 µM | –
– | O=C1/C(=C/c2ccc(O)c(Br)c2)N=C(c2ccc(Cl)cc2)N1c1ccccc1 | – | – | IC50 [15]: 18 µg/mL (≈ 39.7 µM); IC50 [16]: 6.1 µg/mL (≈ 13.4 µM)
0.11 µM | Cc1cc(NS(=O)(=O)c2ccc(N3C(=O)/C(=C/c4ccc(N(C)C)cc4)N=C3c3ccc(Cl)cc3)cc2)no1 | 11.5 µM | 42.4 µM | –
– | CN(C)c1ccc(/C=C2\N=C(c3ccc(Cl)cc3)N(c3ccc(C(=O)OCC(=O)Nc4ccc(S(=O)(=O)Nc5ncccn5)cc4)cc3)C2=O)cc1 | 28.4 µM | 58 µM | –
0.02 µM | CN(C)c1ccc(/C=C2\N=C(c3ccccc3)N(c3ccc(C(=O)OCC(=O)Nc4ccc(S(N)(=O)=O)cc4)cc3)C2=O)cc1 | 17.7 µM | 14.1 µM | –
0.16 µM | CN(C)c1ccc(/C=C2\N=C(c3ccc(Cl)cc3)N(c3ccc(S(=O)(=O)NC(=N)N)cc3)C2=O)cc1 | 13.6 µM | 27.8 µM | –
– | CC(=O)Oc1ccc(/C=C2\N=C(c3ccc(Cl)cc3)N(c3ccccc3)C2=O)cc1Br | – | – | IC50 [15]: 17.8 µg/mL (≈ 35.9 µM); IC50 [16]: 4.6 µg/mL (≈ 9.28 µM)
0.1 µM | CN(C)c1ccc(/C=C2\N=C(c3ccc(Cl)cc3)N(c3ccc(S(=O)(=O)Nc4nccs4)cc3)C2=O)cc1 | 8.65 µM | 16.2 µM | –
0.36 µM | CN(C)c1ccc(/C=C2\N=C(c3ccc(Cl)cc3)N(c3ccc(C(=O)OCC(=O)Nc4ccc(S(N)(=O)=O)cc4)cc3)C2=O)cc1 | 24.2 µM | 25 µM | –
– | Cc1cc(NS(=O)(=O)c2ccc(NC(=O)COC(=O)c3ccc(N4C(=O)/C(=C/c5ccc(N(C)C)cc5)N=C4c4ccc(Cl)cc4)cc3)cc2)no1 | 42.1 µM | 45.5 µM | –
– | CN(C)c1ccc(/C=C2\N=C(c3ccccc3)N(c3ccc(C(=O)OCC(=O)Nc4ccc(S(=O)(=O)Nc5ncccn5)cc4)cc3)C2=O)cc1 | 28.8 µM | 27.3 µM | –
0.14 µM | Cc1cc(NS(=O)(=O)c2ccc(N3C(=O)/C(=C/c4ccc(N(C)C)cc4)N=C3c3ccccc3)cc2)no1 | 9.85 µM | 10.1 µM | –
– | CN(C)c1ccc(/C=C2\N=C(c3ccccc3)N(c3ccc(C(=O)OCC(=O)Nc4ccc(S(=O)(=O)NC(=N)N)cc4)cc3)C2=O)cc1 | 27.7 µM | 38.7 µM | –
0.1 µM | CN(C)c1ccc(/C=C2\N=C(c3ccc(Cl)cc3)N(c3ccc(S(N)(=O)=O)cc3)C2=O)cc1 | 11.5 µM | 28.8 µM | –
– | CN(C)c1ccc(/C=C2\N=C(c3ccc(Cl)cc3)N(c3ccc(C(=O)OCC(=O)Nc4ccc(S(=O)(=O)NC(=N)N)cc4)cc3)C2=O)cc1 | 17.2 µM | 20.2 µM | –
0.11 µM | CN(C)c1ccc(/C=C2\N=C(c3ccc(Cl)cc3)N(c3ccc(C(=O)OCC(=O)Nc4ccc(S(=O)(=O)Nc5nccs5)cc4)cc3)C2=O)cc1 | 10 µM | 12.9 µM | –
– | COc1cccc2c1C(=O)c1c(O)c3c(c(O)c1C2=O)C[C@@](O)(C(=O)CO)C[C@@H]3O[C@H]1C[C@H](N)[C@H](O)[C@H](C)O1 [DOXORUBICIN] | 6.52 µM | 4.99 µM | –
– | CNC(=O)c1cc(Oc2ccc(NC(=O)Nc3ccc(Cl)c(C(F)(F)F)c3)cc2)ccn1 [SORAFENIB] | 4.88 µM | 7.46 µM | IC50 at 72 h [13]: 89.8 µM; Activity [14]: 57.037%

Source: ChEMBL document CHEMBL5532719, “Insight on Some Newly Synthesized Trisubstituted Imidazolinones as VEGFR-2 Inhibitors” (ACS Med Chem Lett, 2024)
